# Measured values from ChEMBL document CHEMBL3046237, “Efficacy of methyl nonyl ketone as an in-soil repellent for common voles (Microtus arvalis)” (2013).
# The source made the active and inactive calls. No cut-off for these calls is given here.
# How the values were obtained:
# [1] = test system: Microtus arvalis; assay: In-soil repellent activity against Microtus arvalis (Common vole) in forage grassland assessed as decrease in number of active burrow entrances at 3.97% ai applied as foam in field for 3 days measured on day 10; assay type: functional, organism-based
# [2] = test system: Microtus arvalis; assay: In-soil repellent activity against Microtus arvalis (Common vole) in forage grassland assessed as decrease in number of active burrow entrances at 3.97% ai applied as foam in field for 3 days measured on day 7; assay type: functional, organism-based
# [3] = test system: Microtus arvalis; assay: In-soil repellent activity against Microtus arvalis (Common vole) in forage grassland assessed as decrease in number of active burrow entrances at 3.97% ai applied as foam in field for first 3 days and reapplied on day 10 measured at 24 hr after last drug dosage; assay type: functional, organism-based
# [4] = test system: Microtus arvalis; assay: Decrease in reopening of compound treated burrow entrances in forage grassland by Microtus arvalis (Common vole) assessed as increase in number of new burrow entrances at 3.97% ai applied as foam in field measured after 5 days of treatment (reference value: 40 +/-19.4%); assay type: functional; parameters: scale not given: the % may be the effect or the level left
# [5] = test system: Microtus arvalis; assay: In-soil repellent activity against Microtus arvalis (Common vole) in forage grassland assessed as decrease in number of active burrow entrances at 3.97% ai applied as foam in field measured after 24 hr relative to control; assay type: functional
# [6] = test system: Microtus arvalis; assay: In-soil repellent activity against Microtus arvalis (Common vole) in forage grassland assessed as decrease in number of active burrow entrances at 3.97% ai applied as foam in field measured after 6 days of treatment (reference value: 48 +/-12%); assay type: functional
# [7] = test system: Microtus arvalis; assay: In-soil repellent activity against Microtus arvalis (Common vole) in forage grassland assessed as decrease in number of active burrow entrances at 3.97% ai applied as foam in field measured after 6 days of treatment relative to untreated control; assay type: functional
# [8] = test system: Microtus arvalis; assay: In-soil repellent activity against Microtus arvalis (Common vole) in forage grassland assessed as decrease in number of active burrow entrances at 3.97% ai applied as foam in field measured after 3 days of treatment; assay type: functional, organism-based
# [9] = test system: Microtus arvalis; assay: In-soil repellent activity against Microtus arvalis (Common vole) in forage grassland assessed as decrease in number of active burrow entrances at 3.97% ai applied as foam in field measured after 4-5 days of treatment; assay type: functional, organism-based
# [10] = test system: Microtus arvalis; assay: Decrease in reopening of compound treated burrow entrances in forage grassland by Microtus arvalis (Common vole) assessed as increase in number of new burrow entrances at 3.97% ai applied as foam in field (reference value: 41 +/-21.1%); assay type: functional; parameters: scale not given: the % may be the effect or the level left
# [11] = test system: Microtus arvalis; assay: In-soil repellent activity against Microtus arvalis (Common vole) in forage grassland assessed as decrease in number of active burrow entrances at 3.97% ai applied as foam in field measured after 48 hr relative to control; assay type: functional
# [12] = test system: Microtus arvalis; assay: In-soil repellent activity against Microtus arvalis (Common vole) in forage grassland assessed as decrease in number of active burrow entrances at 3.97% ai applied as foam in field for first 3 days and reapplied on day 10 measured on day 14; assay type: functional, organism-based
smiles,measurement,setting,value
CCCCCCCCCC(C)=O [METHYL NONYL KETONE],inhibition,[1],inactive
same,inhibition,[2],Active
same,inhibition,[3],Active
same,Activity,[4],95%
same,fold change (FC),[5],3
same,inhibition (INH),[6],92%
same,fold change (FC),[7],2
same,inhibition,[8],Active
same,inhibition,[9],Active
same,Activity,[10],73%
same,fold change (FC),[11],2
same,inhibition,[12],Active
